Measurements published in patent publication US20230113037A1 (Bayer Aktiengesellschaft, priority 2019, published 2023).
Where two headings read alike, the source gives them in different places.

Columns and labels:
AHR [1] = target: T1, AHR (Mus musculus, UniProt P30561); test: In vitro assay 3: antagonism in mouse cell line (AHR transactivation, firefly luciferase reporter, kynurenic acid prestimulated); type: cell-based
T1 sequence (P30561 1-848 P471L/N533S/M589L): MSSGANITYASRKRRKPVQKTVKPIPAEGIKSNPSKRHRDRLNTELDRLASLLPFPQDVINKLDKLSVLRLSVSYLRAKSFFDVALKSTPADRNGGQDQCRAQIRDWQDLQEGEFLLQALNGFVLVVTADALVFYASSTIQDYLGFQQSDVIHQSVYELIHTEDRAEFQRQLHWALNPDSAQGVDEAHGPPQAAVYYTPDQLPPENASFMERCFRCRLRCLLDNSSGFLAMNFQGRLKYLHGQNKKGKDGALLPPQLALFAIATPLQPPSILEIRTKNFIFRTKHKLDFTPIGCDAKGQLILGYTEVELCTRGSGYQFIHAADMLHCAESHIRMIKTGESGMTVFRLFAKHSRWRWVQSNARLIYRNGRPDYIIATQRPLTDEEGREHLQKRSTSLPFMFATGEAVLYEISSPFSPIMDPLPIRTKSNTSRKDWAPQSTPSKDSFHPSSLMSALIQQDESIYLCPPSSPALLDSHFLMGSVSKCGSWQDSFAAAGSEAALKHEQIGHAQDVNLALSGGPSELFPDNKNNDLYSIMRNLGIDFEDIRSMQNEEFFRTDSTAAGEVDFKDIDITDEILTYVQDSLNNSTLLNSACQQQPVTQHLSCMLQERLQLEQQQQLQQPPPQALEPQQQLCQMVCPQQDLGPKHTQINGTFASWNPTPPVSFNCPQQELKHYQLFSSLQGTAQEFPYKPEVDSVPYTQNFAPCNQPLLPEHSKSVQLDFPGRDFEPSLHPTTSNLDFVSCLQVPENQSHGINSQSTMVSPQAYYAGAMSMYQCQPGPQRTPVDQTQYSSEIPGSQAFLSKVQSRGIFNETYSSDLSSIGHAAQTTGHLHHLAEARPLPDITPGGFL
Method in brief: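 Mouse cells stably carrying a DRE-driven AHR-inducible firefly luciferase reporter were prestimulated with the endogenous agonist kynurenic acid before compound addition. Luciferase read by SteadyGlo; cells without kynurenic acid served as full-inhibition control, with normalization to positive and negative controls. Repeat tests reported as mean or median.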

AHR [2] = target: T2, AHR (Homo sapiens, UniProt P35869); test: In vitro assay 1: antagonism in human cell line (AHR transactivation, firefly luciferase reporter, kynurenic acid prestimulated); type: cell-based; settings: AHR Antagonism Human IC50 [M]
T2 construct: U87 MG glioblastoma cells (ATCC #HTB-14) endogenously expressing AHR; endogenous in cells; host or cells: U87 MG glioblastoma cells (ATCC #HTB-14)
T2 sequence (P35869 11-848): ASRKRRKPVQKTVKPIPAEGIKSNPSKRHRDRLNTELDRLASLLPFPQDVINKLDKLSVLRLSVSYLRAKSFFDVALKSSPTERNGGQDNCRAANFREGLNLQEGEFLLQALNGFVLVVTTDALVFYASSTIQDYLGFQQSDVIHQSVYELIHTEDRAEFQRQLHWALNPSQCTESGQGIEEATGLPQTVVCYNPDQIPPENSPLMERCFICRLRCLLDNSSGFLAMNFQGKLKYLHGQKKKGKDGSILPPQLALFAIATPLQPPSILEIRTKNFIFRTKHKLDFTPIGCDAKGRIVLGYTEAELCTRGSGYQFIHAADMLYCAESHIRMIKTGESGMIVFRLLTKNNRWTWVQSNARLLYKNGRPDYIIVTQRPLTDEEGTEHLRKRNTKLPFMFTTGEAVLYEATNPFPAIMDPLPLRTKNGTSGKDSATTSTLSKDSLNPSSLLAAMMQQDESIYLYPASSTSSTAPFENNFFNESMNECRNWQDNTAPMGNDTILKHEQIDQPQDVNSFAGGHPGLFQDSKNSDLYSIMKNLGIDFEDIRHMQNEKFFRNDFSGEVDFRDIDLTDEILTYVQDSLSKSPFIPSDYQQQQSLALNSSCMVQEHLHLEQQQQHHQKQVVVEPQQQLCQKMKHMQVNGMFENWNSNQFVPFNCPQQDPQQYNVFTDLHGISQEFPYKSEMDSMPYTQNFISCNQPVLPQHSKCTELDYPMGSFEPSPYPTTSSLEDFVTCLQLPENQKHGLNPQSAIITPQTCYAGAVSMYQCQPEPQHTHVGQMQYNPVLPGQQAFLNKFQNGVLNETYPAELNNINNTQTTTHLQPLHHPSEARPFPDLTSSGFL
Method in brief: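 U87 MG + DRE-firefly/constitutive-Renilla stable reporters; kynurenic acid prestim; dual-luc read; Renilla = tox; normalized vs pos/neg controls (pos: 150 μM KYNA + 5 μM staurosporine).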

[3] = mouse Hepa 1c1c7 cells, 200 μM kynurenic acid, 20 hours, read-out: AHR Antagonism Mouse IC50

| IC50 (AHR [1]; [3]) [nM] | IC50 (AHR [2]) [M] | SMILES | IC50 (AHR [1]; read-out: AHR Antagonism Mouse IC50, mouse Hepa 1c1c7 cells, 200 μM kynurenic acid, 20 hours) [nM] |
| --- | --- | --- | --- |
| 2.99 | 4.98e-08 | CSc1ccccc1-c1nc2c3ccccc3nc(N[C@@H]3CCCCNC3=O)n2n1 [Example 478, (3R)-3-({2-[2-(methylsulfanyl)phenyl][1,2,4]triazolo[1,5-c]quinazolin-5-yl}amino)azepan-2-one] |  |
| 14.8 | 2.07e-08 | O=C1NCCCC[C@H]1Nc1nc2ccccc2c2nc(-c3cncc(Cl)c3)nn12 [Example 480, (3R)-3-{[2-(5-chloropyridin-3-yl)[1,2,4]triazolo[1,5-c]quinazolin-5-yl]amino}azepan-2-one] |  |
| 104 | 1.02e-06 | O=C1NCCCC[C@@H]1Nc1nc2ccccc2c2nc(-c3ccncc3F)nn12 [Example 481, (3S)-3-{[2-(3-fluoropyridin-4-yl)[1,2,4]triazolo[1,5-c]quinazolin-5-yl]amino}azepan-2-one] |  |
| 3160 | 2.23e-06 | O=C1NCCC[C@H]1Nc1nc2ccccc2c2nc(-c3ccncc3F)nn12 [Example 482, (3R)-3-{[2-(3-fluoropyridin-4-yl)[1,2,4]triazolo[1,5-c]quinazolin-5-yl]amino}piperidin-2-one] |  |
| 12.3 | 6.4e-08 | O=C1NCCCC[C@H]1Nc1nc2ccccc2c2nc(-c3cccnc3C(F)(F)F)nn12 [Example 488, (3R)-3-({2-[2-(trifluoromethyl)pyridin-3-yl][1,2,4]triazolo[1,5-c]quinazolin-5-yl}amino)azepan-2-one] |  |
| 50.6 | 4.25e-08 | O=C1NCCCC[C@H]1Nc1nc2ccccc2c2nc(-c3cnccc3C(F)(F)F)nn12 [Example 490, (3R)-3-({2-[4-(trifluoromethyl)pyridin-3-yl][1,2,4]triazolo[1,5-c]quinazolin-5-yl}amino)azepan-2-one] |  |
| 5.71 | 2.22e-08 | O=C1NCCCC[C@H]1Nc1nc2ccccc2c2nc(-c3cc(F)ccc3OC(F)(F)F)nn12 [Example 492, (3R)-3-({2-[5-fluoro-2-(trifluoromethoxy)phenyl][1,2,4]triazolo[1,5-c]quinazolin-5-yl}amino)azepan-2-one] |  |
| 36.9 | > 2e-05 | O=C1NCCCC[C@@H]1Nc1nc2ccccc2c2nc(-c3cc(F)ccc3OC(F)(F)F)nn12 [Example 493, (3S)-3-({2-[5-fluoro-2-(trifluoromethoxy)phenyl][1,2,4]triazolo[1,5-c]quinazolin-5-yl}amino)azepan-2-one] |  |
| 700 | > 2e-05 | O=C1NCCCC[C@@H]1Nc1nc2ccccc2c2nc(-c3cc(Cl)ccc3OC(F)(F)F)nn12 [Example 498, (3S)-3-({2-[5-chloro-2-(trifluoromethoxy)phenyl][1,2,4]triazolo[1,5-c]quinazolin-5-yl}amino)azepan-2-one] |  |
| > 20000 | > 2e-05 | O=C1NCCC[C@H]1Nc1nc2ccccc2c2nc(-c3cc(Cl)ccc3OC(F)(F)F)nn12 [Example 499, (3R)-3-({2-[5-chloro-2-(trifluoromethoxy)phenyl][1,2,4]triazolo[1,5-c]quinazolin-5-yl}amino)piperidin-2-one] |  |

The next lines start with the molecule.

| SMILES | IC50 (AHR [1]; [3]) [nM] | IC50 (AHR [2]) [M] | IC50 (AHR [1]; read-out: AHR Antagonism Mouse IC50, mouse Hepa 1c1c7 cells, 200 μM kynurenic acid, 20 hours) [nM] |
| --- | --- | --- | --- |
| CCC[C@@H](Nc1nc2ccccc2c2nc(-c3ccccc3OC(F)F)nn12)C(=O)NC [Example 477, N^2-{2-[2-(difluoromethoxy)phenyl][1,2,4]triazolo[1,5-c]quinazolin-5-yl}-N-methyl-D-norvalinamide] | 1.44 | 1.81e-08 |  |
| O=C1NCCCC[C@H]1Nc1nc2ccccc2c2nc(-c3cncc(F)c3)nn12 [Example 479, (3R)-3-{[2-(5-fluoropyridin-3-yl)[1,2,4]triazolo[1,5-c]quinazolin-5-yl]amino}azepan-2-one] |  | 3.53e-08 | 33.2 |
| O=C1NCC[C@H]1Nc1nc2ccccc2c2nc(-c3ccncc3F)nn12 [Example 483, (3R)-3-{[2-(3-fluoropyridin-4-yl)[1,2,4]triazolo[1,5-c]quinazolin-5-yl]amino}pyrrolidin-2-one] | 2170 | 1.45e-06 |  |
| CC[C@@H](Nc1nc2ccccc2c2nc(-c3ccncc3F)nn12)C(N)=O [Example 484, (2R)-2-{[2-(3-fluoropyridin-4-yl)[1,2,4]triazolo[1,5-c]quinazolin-5-yl]amino}butanamide] | 27.6 | 9.06e-08 |  |
| CCCCNC(=O)CNc1nc2ccccc2c2nc(-c3ccncc3F)nn12 [Example 485, N-butyl-N^2-[2-(3-fluoropyridin-4-yl)[1,2,4]triazolo[1,5-c]quinazolin-5-yl]glycinamide] | 10100 | 7.54e-07 |  |
| CCC[C@@H](Nc1nc2ccccc2c2nc(-c3ccncc3F)nn12)C(=O)NC [Example 486, N^2-[2-(3-fluoropyridin-4-yl)[1,2,4]triazolo[1,5-c]quinazolin-5-yl]-N-methyl-D-norvalinamide] | 184 | 3.34e-07 |  |
| CCCNC(=O)[C@@H](C)Nc1nc2ccccc2c2nc(-c3ccncc3F)nn12 [Example 487, N^2-[2-(3-fluoropyridin-4-yl)[1,2,4]triazolo[1,5-c]quinazolin-5-yl]-N-propyl-D-alaninamide] | 200 | 3.26e-07 |  |
| CC[C@@H](Nc1nc2ccccc2c2nc(-c3cccnc3C(F)(F)F)nn12)C(N)=O [Example 489, (2R)-2-({2-[2-(trifluoromethyl)pyridin-3-yl][1,2,4]triazolo[1,5-c]quinazolin-5-yl}amino)butanamide] | 43.3 | 4.24e-07 |  |
| CC[C@@H](Nc1nc2ccccc2c2nc(-c3cnccc3C(F)(F)F)nn12)C(N)=O [Example 491, (2R)-2-({2-[4-(trifluoromethyl)pyridin-3-yl][1,2,4]triazolo[1,5-c]quinazolin-5-yl}amino)butanamide] | 50.5 | 9.72e-08 |  |
| CCC[C@@H](Nc1nc2ccccc2c2nc(-c3cc(F)ccc3OC(F)(F)F)nn12)C(=O)NC [Example 494, N^2-{2-[5-fluoro-2-(trifluoromethoxy)phenyl][1,2,4]triazolo[1,5-c]quinazolin-5-yl}-N-methyl-D-norvalinamide] | 11.1 | 2.28e-07 |  |
| CCCNC(=O)[C@@H](C)Nc1nc2ccccc2c2nc(-c3cc(F)ccc3OC(F)(F)F)nn12 [Example 495, N^2-{2-[5-fluoro-2-(trifluoromethoxy)phenyl][1,2,4]triazolo[1,5-c]quinazolin-5-yl}-N-propyl-D-alaninamide] | 13.2 | 7.03e-08 |  |
| CC[C@@H](Nc1nc2ccccc2c2nc(-c3cc(F)ccc3OC(F)(F)F)nn12)C(N)=O [Example 496, (2R)-2-({2-[5-fluoro-2-(trifluoromethoxy)phenyl][1,2,4]triazolo[1,5-c]quinazolin-5-yl}amino)butanamide] | 1.9 | 4.66e-08 |  |
| O=C1NCC[C@H]1Nc1nc2ccccc2c2nc(-c3cc(Cl)ccc3OC(F)(F)F)nn12 [Example 500, (3R)-3-({2-[5-chloro-2-(trifluoromethoxy)phenyl][1,2,4]triazolo[1,5-c]quinazolin-5-yl}amino)pyrrolidin-2-one] | 2970 | > 2e-05 |  |
